For data set [1] the following is noted: cited from earlier work.
Data set [2] is described as follows: Storage stability in aqueous solution at pH 3.5 and room temperature. The format is physicochemical. The note with it: pH 3.5, room temperature. An excerpt: The rate of breakdown is dependent on the pH of the solution and temperature, with the concentration not playing a role. Particularly in the acid pH region, this breakdown to creatinine proceeds very rapidly. At room temperature and pH 3.5, creatine is already more than 20% converted to creatinine after 3 days and the physiological effect is lost. A pH of 3.5 is a typical pH for, for example, a soft drink. Owing to the rapid breakdown of creatine in this environment, the use of creatine, in particular creatine monohydrate, in aqueous or moist formulations for human and animal nutrition is virtually excluded. Even the pH in the stomach of 1 to 2 can, depending on the residence time, lead to significant breakdown of creatine to form creatinine.
According to FIG. 1, the storage stability of creatine was determined in comparison with a mixture of 4 parts by weight of guanidinoacetic acid and 6 parts by weight of betaine in aqueous solution at pH 3.5 and room temperature: whereas creatine, after 3 days, is already more than 20% converted to creatinine, in the mixture of guanidinoacetic acid and betaine under identical conditions, after 90 days, 95% of the initial amount was still detectable as guanidinoacetic acid.

In the next data set the test system is Staphyllococcus aureus. The note with it: animal experiments; cited from earlier work.
Data set [3] is described as follows: Stability under pasteurization or sterilization of aqueous preparations. The note with it: in contrast to creatine. The format is physicochemical. An excerpt: In the production process, aqueous preparations, such as those according to the invention, also, are generally pasteurized or sterilized. […] These advantages were unexpected in this manner in their totality.

A further data set in a line: Solubility in water. The format is physicochemical. The note with it: room temperature. An excerpt: In comparison with creatine, guanidinoacetic acid has a lower solubility in water (3.8 g per liter at room temperature). […] Therefore, for example, even in half a liter of an aqueous drink, a physiologically meaningful daily dose of the guanidinoacetic acid component can be incorporated without problem.

[4] abbreviates: 0.032% guanidinoacetic acid in hens' feed.
Where [5] appears, read: chickens, less than 0.1% guanidinoacetic acid in the feed.

Read-outs that look alike come from different tables or passages of the source.

The source of these data is patent publication US20090297656A1, “Liquid Formulation Based On a Guanidinoacetic Acid Component” (priority 2005, published 2009).

In the case of `CN(CC(=O)O)C(=N)N` [creatine, reference compound], the weight gain in data set [1] (chickens, 0.2% creatine in the feed) is on record as 4%. Further, the converted to creatinine entry in data set [2] (after 3 days) is on record as “more than 20%”.
Regarding `C[N+](C)(C)CC(=O)O` [Betaine, betaine], the “stability under the stated conditions” value in data set [2] is “completely stable”.
As for `N=C(N)NCC(=O)O` [guanidinoacetic acid], in data set [1] (setting [4]), the improved feed utilization is 3% and the weight gain is on record as 3%. Besides, in data set [1] (setting [5]), the “lower feed consumption compared with the control group” value is 6% and the “weight gain compared with the control group” value is listed as 7%. In addition, the “use against bacterial infections” value in the data set on Staphyllococcus aureus is listed as “successfully used”. The “stability under pasteurization/sterilization conditions” value in data set [3] is recorded as “outstanding stability”. Further, the solubility in water in the data set “Solubility in water” worked out at 3.8 g per liter.
